Measurements from US9248145B2, “Two alkylresorcinol synthase genes from sorghum; cloning, expression, transformation and characterization” (The United States of America, as represented by The …, priority 2010, dated 2016).

Columns and labels:
[1] = biological target: T1, recombinant ARS2 (Sorghum bicolor, UniProt C5YRS1); experiment: Polyketide synthase enzyme assay, 5-alkylresorcinol formation (GC-MS, m/z 268); format: biochemical; settings: for activity as starter unit (in words): malonyl-CoA extender
T1 sequence (C5YRS1 entry or part of it): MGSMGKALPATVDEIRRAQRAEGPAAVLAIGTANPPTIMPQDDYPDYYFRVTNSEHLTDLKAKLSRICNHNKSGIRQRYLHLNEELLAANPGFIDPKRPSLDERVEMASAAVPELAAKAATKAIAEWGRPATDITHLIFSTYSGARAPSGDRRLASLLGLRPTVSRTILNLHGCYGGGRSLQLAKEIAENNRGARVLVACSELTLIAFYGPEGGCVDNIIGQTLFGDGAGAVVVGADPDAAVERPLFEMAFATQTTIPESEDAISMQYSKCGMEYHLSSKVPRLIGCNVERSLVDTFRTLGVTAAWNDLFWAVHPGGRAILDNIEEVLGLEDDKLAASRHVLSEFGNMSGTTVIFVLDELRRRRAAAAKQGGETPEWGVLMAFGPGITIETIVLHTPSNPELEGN
Protocol: (§1) Reactions were quenched by addition of 10 μL of 20% HCl, and products were extracted by phase partitioning with 1 ml of ethyl acetate. The organic phase (upper layer) obtained by centrifugation at ˜14,000×g for 1 min was transferred to a fresh tube, dried under vacuum, and subsequently analyzed by GC-EI-MS as a trimethysilyl (TMS) derivative.
(§2) Reactions were quenched by addition of 10 μL of 20% HCl. The products were extracted as described above, and were separated by thin layer chromatography (silica gel 60 F254; chloroform:ethyl acetate=70:30; 15 min). Product detection and formation was quantified through the use of the Cyclone storage phosphor system and OptiQuant 3.0 image analysis software (PerkinElmer, Wellesley, Mass.).
(§3) Recombinant enzyme studies were next performed to examine substrate preferences for the 3 putative type III PKS enzymes maximally expressed in root hairs. […] Acyl-CoAs varying in length and degree of saturation were tested in enzymatic assays with all three recombinant enzymes, as well as the non-linear starter units benzoyl-CoA, isovaleryl-CoA, and isobutryl-CoA used by several other plant type III PKS enzymes (Austin and Noel, supra).

[2] = biological target: T2, recombinant ARS1 (Sorghum bicolor, UniProt C5Y4Z2); experiment: as above; format: biochemical; settings: for activity as starter unit (in words): malonyl-CoA extender
T2 sequence (C5Y4Z2 entry or part of it): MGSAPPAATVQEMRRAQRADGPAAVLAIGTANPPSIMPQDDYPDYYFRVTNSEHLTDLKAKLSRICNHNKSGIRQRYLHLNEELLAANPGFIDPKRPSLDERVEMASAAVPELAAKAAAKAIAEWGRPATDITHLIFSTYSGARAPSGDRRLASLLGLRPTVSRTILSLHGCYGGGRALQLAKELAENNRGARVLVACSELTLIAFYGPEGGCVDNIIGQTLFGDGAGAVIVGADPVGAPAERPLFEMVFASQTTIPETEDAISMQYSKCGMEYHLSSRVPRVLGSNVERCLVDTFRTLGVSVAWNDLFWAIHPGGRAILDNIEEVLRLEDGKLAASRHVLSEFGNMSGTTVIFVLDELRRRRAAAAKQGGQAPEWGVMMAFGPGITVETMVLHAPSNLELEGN
Protocol: as §1, §2, §3

[3] = system: recombinant Os05g12180; experiment: Polyketide synthase enzyme assay, alkylresorcinol synthase activity; format: biochemical, Oryza sativa
Protocol: (§4) Polyketide synthase enzyme assays, performed in triplicate, contained 100 mM potassium phosphate buffer (pH 7.0), 40 μM malonyl-CoA, 25 μM starter unit (e.g., palmitoyl-CoA), and 2 μg protein in a 200 μL volume at 30° C. for 15 min. […] Reactions were quenched by addition of 10 μL of 20% HCl, and products were extracted by phase partitioning with 1 ml of ethyl acetate. The organic phase (upper layer) obtained by centrifugation at ˜14,000×g for 1 min was transferred to a fresh tube, dried under vacuum, and subsequently analyzed by GC-EI-MS as a trimethysilyl (TMS) derivative. Product formation was quantified using selective ion monitoring at m/z 268, a fragment ion common to all alkylresorcinols, generated by benzylic cleavage of the alkyl side chain. The identification of the m/z 268 [(5-methyl-1,3 phenylene)bis(oxy)bis(TMS)]^+ base ion and the parent [M]^+ provide confirmation of the 5-alkylresorcinolic structure as well as the length and degree of saturation of the associated side chain (Occolowitz, 1964. Anal. Chem. 36:2177-2181; Suzuki et al. 1996, supra; Suzuki at al. 2003, supra).
(§5) Enzyme assays, performed in triplicate, for starter unit CoA kinetics contained 100 mM potassium phosphate buffer (pH 7.0), 40 μM [2-^14C]-malonyl-CoA (50-60 mCi/mmol, 1.85-2.22 GBq/mmol; American Radiolabeled Chemicals, Inc., St. Louis, Mo.), 1.43-10 μM starter unit (e.g., palmitoyl-CoA), and 0.75 μg protein in a 200 μL volume at 30° C. for 5 min. Enzyme assays for malonyl-CoA kinetics contained 100 mM potassium phosphate buffer (pH 7.0), 1.66-25 μM [2-^14C]-malonyl-CoA, 25 μM starter unit (palmitoleoyl-CoA), and 0.75 μg protein in a 200 μL volume at 30° C. for 5 min. Reactions were quenched by addition of 10 μL of 20% HCl. The products were extracted as described above, and were separated by thin layer chromatography (silica gel 60 F254; chloroform:ethyl acetate=70:30; 15 min). Product detection and formation was quantified through the use of the Cyclone storage phosphor system and OptiQuant 3.0 image analysis software (PerkinElmer, Wellesley, Mass.). Data were fit to the Michaelis-Menten equation using the Sigma Plot 9.01 enzyme kinetics module (Systat, Inc., San Jose, Calif.).
(§6) To explore this possibility, the predicted open reading frames encoded by O. sativa (cv. Nipponbare) LOC_Os05g12180, LOC_Os10g08620, and LOC_Os10g07040, were also expressed in E. coli as N-terminal polyhistidine fusions, and tested for alkylresorcinol synthase activity with the same panel of fatty acyl-CoA substrates used for recombinant ARS1 and ARS2 enzymatic studies (FIG. 4).

[4] = system: recombinant Os10g08620; experiment: as above; format: biochemical, Oryza sativa
Protocol: as §4, §5, §6

[5] = system: recombinant Os10g07040; experiment: as above; format: biochemical, Oryza sativa
Protocol: as §4, §5, §6

[6] = biological target: T1, recombinant ARS2; experiment: Steady-state kinetics with [2-14C]-malonyl-CoA, TLC/phosphor imaging; format: biochemical; settings: for Km: same conditions as kcat; for kcat: starter kinetics: 40 μM [2-14C]-malonyl-CoA, 1.43-10 μM starter, malonyl-CoA kinetics: 25 μM palmitoleoyl-CoA starter, pH 7.0, 30° C., 5 min
Protocol: as §5

[7] = biological target: T2, recombinant ARS1; experiment: as above; format: biochemical; settings: for Km: same conditions as kcat; for kcat: starter kinetics: 40 μM [2-14C]-malonyl-CoA, 1.43-10 μM starter, malonyl-CoA kinetics: 25 μM palmitoleoyl-CoA starter, pH 7.0, 30° C., 5 min
Protocol: as §5

[8] = 25 μM starter unit, 40 μM malonyl-CoA, pH 7.0, 30° C., 15 min

CC(C)C(=O)SCCNC(=O)CCNC(=O)[C@H](O)C(C)(C)COP(=O)(O)OP(=O)(O)OC[C@H]1O[C@@H](n2cnc3c(N)ncnc32)[C@H](O)[C@@H]1OP(=O)(O)O [isobutyryl-CoA]
activity as starter unit (in words) [1]: No activity | activity as starter unit (in words) [2]: No activity

CCCCCC(=O)SCCNC(=O)CCNC(=O)[C@H](O)C(C)(C)COP(=O)(O)OP(=O)(O)OC[C@H]1O[C@@H](n2cnc3c(N)ncnc32)[C@H](O)[C@@H]1OP(=O)(O)O [hexanoyl-CoA]
activity as starter unit (in words) [3]: No activity | activity as starter unit (in words) [4]: No activity | activity as starter unit (in words) [5]: No activity | triketide pyrone derailment product, share of the total moles product derived from the starter [1]: approximately 9% | triketide pyrone derailment product, share of the total moles product derived from the starter [2]: approximately 9%

CCCCCC/C=C\CCCCCCCC(=O)SCCNC(=O)CCNC(=O)[C@H](O)C(C)(C)COP(=O)(O)OP(=O)(O)OC[C@H]1O[C@@H](n2cnc3c(N)ncnc32)[C@H](O)[C@@H]1OP(=O)(O)O [C16:1-CoA, palmitoleoyl-CoA]
Km [6]: 3.6 µM | kcat [6]: 0.0233 s⁻¹ | Km [7]: 2.3 µM | kcat [7]: 0.0183 s⁻¹ | maximal 5-alkylresorcinol-forming activity [1, 8]: 60.1 pkat mg^1

CCCCCCCC(=O)SCCNC(=O)CCNC(=O)[C@H](O)C(C)(C)COP(=O)(O)OP(=O)(O)OC[C@H]1O[C@@H](n2cnc3c(N)ncnc32)[C@H](O)[C@@H]1OP(=O)(O)O [capryloyl-CoA]
triketide pyrone derailment product, share of the total moles product derived from the starter [2]: ~33%

CC(C)CC(=O)SCCNC(=O)CCNC(=O)[C@H](O)C(C)(C)COP(=O)(O)OP(=O)(O)OC[C@H]1O[C@@H](n2cnc3c(N)ncnc32)[C@H](O)[C@@H]1OP(=O)(O)O [isovaleryl-CoA]
activity as starter unit (in words) [1]: No activity | activity as starter unit (in words) [2]: No activity

CC(C)(COP(=O)(O)OP(=O)(O)OC[C@H]1O[C@@H](n2cnc3c(N)ncnc32)[C@H](O)[C@@H]1OP(=O)(O)O)[C@@H](O)C(=O)NCCC(=O)NCCSC(=O)CC(=O)O [Malonyl-CoA, malonyl-CoA]
Km [6]: 5.8 µM | kcat [6]: 0.0123 s⁻¹ | Km [7]: 5.2 µM | kcat [7]: 0.0148 s⁻¹

CCCCCCCCCCCCCC(=O)SCCNC(=O)CCNC(=O)[C@H](O)C(C)(C)COP(=O)(O)OP(=O)(O)OC[C@H]1O[C@@H](n2cnc3c(N)ncnc32)[C@H](O)[C@@H]1OP(=O)(O)O [myristoyl-CoA]
triketide pyrone derailment product, share of the total moles product derived from the starter [1]: < 5% | triketide pyrone derailment product, share of the total moles product derived from the starter [2]: ~15% | maximal 5-alkylresorcinol-forming activity [2, 8]: 81.0 pkat mg^−1

C=CC/C=C\C/C=C\CCCCCCCCSCCNC(=O)CCNC(=O)[C@H](O)C(C)(C)COP(=O)(O)OP(=O)(O)OC[C@H]1O[C@@H](n2cnc3c(N)ncnc32)[C@H](O)[C@@H]1OP(=O)(O)O [hexadecatrienyl-CoA, (9Z,12Z)-Hexadeca-9,12,15-trienyl-CoA]
activity as starter unit (in words) [1]: utilized | activity as starter unit (in words) [2]: utilized

CCCCC/C=C\C/C=C\C/C=C\C/C=C\CCCC(=O)SCCNC(=O)CCNC(=O)[C@H](O)C(C)(C)COP(=O)(O)OP(=O)(O)OC[C@H]1O[C@@H](n2cnc3c(N)ncnc32)[C@H](O)[C@@H]1OP(=O)(O)O [arachidonoyl-CoA]
activity as starter unit (in words) [3]: No activity | activity as starter unit (in words) [4]: No activity | activity as starter unit (in words) [5]: No activity

CCCCCCCCCCCCCCCC(=O)SCCNC(=O)CCNC(=O)[C@H](O)C(C)(C)COP(=O)(O)OP(=O)(O)OC[C@H]1O[C@@H](n2cnc3c(N)ncnc32)[C@H](O)[C@@H]1OP(=O)(O)O [C16:0-CoA, palmitoyl-CoA]
Km [6]: 4.1 µM | kcat [6]: 0.0183 s⁻¹ | Km [7]: 2.3 µM | kcat [7]: 0.0132 s⁻¹

CC(C)(COP(=O)(O)OP(=O)(O)OC[C@H]1O[C@@H](n2cnc3c(N)ncnc32)[C@H](O)[C@@H]1OP(=O)(O)O)[C@@H](O)C(=O)NCCC(=O)NCCSC(=O)c1ccccc1 [benzoyl-CoA]
activity as starter unit (in words) [1]: No activity | activity as starter unit (in words) [2]: No activity
